Test results reported in ChEMBL document CHEMBL1147543, “Styrylheterocycles as a novel class inhibitor of cyclooxygenase-2-mediated prostaglandin E(2) production” (Bioorg Med Chem Lett, 2004).

Tested on: RAW264.7
Experiment: Inhibitory effect on PGE-2 production in LPS-stimulated RAW264.7 cells
Type: functional, cell-based
Conditions: Mus musculus

Compared with `COc1cc(/C=C/c2cc(OC)cc(OC)c2)cc(OC)c1`, `COc1cc(/C=C/c2cc(OC)c(OC)cc2OC)cc(OC)c1` is lower in IC50: over 33.3 µM for the first, 7.4 µM for the second. The second is the more potent here.

In the case of `Oc1ccc(/C=C/c2cc(O)cc(O)c2)cc1` [RESVERATROL], the IC50 is reported as 4 µM.
